Where no end group is shown, it is not given here.
Test system: PARP cleavage in LNCaP cells
Test: PARP cleavage by Western blot, LNCaP cells
Assay type: cell-based
Details: 50 µM each drug, 8 hrs, Fig. 5D
Method: For proliferation, cells were grown in medium containing 2% FBS extracted with dextran-coated charcoal (DCC). 48 hours later, ethanol or 1 nM R1881 was added to the cells followed by peptide treatment. The MTT assay (Sigma) was used as before to determine cell number. For apoptosis, 5000 cells were seeded in 96-well plates and treated with Vehicle (DMSO), Peptide A-8R (25 µM), Etoposide (50 µM) (Sigma) at different time points. The Caspase (3/7) activity was measured using Apo-ONE Homogeneous Caspase-3/7 assay kit (Promega). PARP cleavage was also used to measure apoptosis, and is described below.
Western blotting was performed as described using primary antibodies against sGCα1 (Cayman Chemical), pan-Akt (Cell Signaling Technology), phospho-AKT (S473, T308) (Cell Signaling Technology), phospho-PDK1 (Cell Signaling Technology), phospho-GSK-3β (Cell Signaling Technology), PARP (Cell Signaling Technology), and β-Actin (Abcam).
Figure 5 Peptide A-8R induces apoptosis of prostate cancer cells. (A) LNCaP, (B) PC-3, or (C) Cos cells were treated with Vehicle, Peptide A-8R (10 µM), or Etoposide (20 µM) for 0–24 hrs and subjected to a Caspase assay to measure apoptosis. […] (D) LNCaP cells were treated with Vehicle, Peptide C-8R, Peptide A-8R, or Etoposide (each drug at 50 µM) for 8 hrs and monitored for apoptosis by measuring PARP cleavage using Western blotting. […]

For Ac-TFCKAFPFHIIRRRRRRRR [Peptide A-8R], the “induction of PARP cleavage” value was “to the same extent as by Etoposide”.

Source: PMC3664642, “A Peptide against Soluble Guanylyl Cyclase α1: A New Approach to Treating Prostate Cancer” (PLoS ONE, 2013)
